The structures appear in SMILES notation. Activity calls are given as the source filed them.

The target in test [1] is T1, Glycogen phosphorylase, liver form (Homo sapiens, UniProt P06737).
T1 sequence (P06737 whole entry): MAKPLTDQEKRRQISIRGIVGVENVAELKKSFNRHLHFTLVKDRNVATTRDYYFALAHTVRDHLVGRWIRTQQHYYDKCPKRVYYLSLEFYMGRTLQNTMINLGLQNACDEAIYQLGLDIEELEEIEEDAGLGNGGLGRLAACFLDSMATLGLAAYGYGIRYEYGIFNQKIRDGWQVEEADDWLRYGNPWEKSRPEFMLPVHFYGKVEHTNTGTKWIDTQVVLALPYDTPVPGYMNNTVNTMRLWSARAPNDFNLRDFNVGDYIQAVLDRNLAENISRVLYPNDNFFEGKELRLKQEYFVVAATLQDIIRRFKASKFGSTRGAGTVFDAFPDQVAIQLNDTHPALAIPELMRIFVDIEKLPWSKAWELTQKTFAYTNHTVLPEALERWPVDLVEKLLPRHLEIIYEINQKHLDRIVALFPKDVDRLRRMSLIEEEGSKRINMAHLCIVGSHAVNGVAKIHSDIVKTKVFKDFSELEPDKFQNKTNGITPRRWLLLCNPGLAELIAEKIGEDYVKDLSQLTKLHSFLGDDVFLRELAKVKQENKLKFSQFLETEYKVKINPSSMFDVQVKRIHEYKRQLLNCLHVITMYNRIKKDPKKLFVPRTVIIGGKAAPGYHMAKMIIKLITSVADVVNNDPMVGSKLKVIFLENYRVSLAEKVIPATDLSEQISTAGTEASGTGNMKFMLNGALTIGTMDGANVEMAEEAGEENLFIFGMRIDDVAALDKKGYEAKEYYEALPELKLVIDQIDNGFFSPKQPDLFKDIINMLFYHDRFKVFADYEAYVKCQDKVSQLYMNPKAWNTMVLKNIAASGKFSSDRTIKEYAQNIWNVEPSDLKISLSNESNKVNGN
Format: subcellular, K-562, COLO 205, SK-N-BE(2) and MV-4-11, Cell lysate. The settings on record: read-out: Kd apparent.

Test [2] deals with Bone morphogenetic protein receptor type-1B (Homo sapiens, UniProt O00238).
The target in test [3] is Deoxycytidine kinase (Homo sapiens, UniProt P27707).
In test [4] the target is Ephrin type-A receptor 5 (Homo sapiens, UniProt P54756).
Test [5] has as its target Tyrosine-protein kinase Lyn (Homo sapiens, UniProt P07948).
Test [6] concerns the target T2, Dual specificity mitogen-activated protein kinase kinase 5 (Homo sapiens, UniProt Q13163).
T2 sequence (Q13163 whole entry): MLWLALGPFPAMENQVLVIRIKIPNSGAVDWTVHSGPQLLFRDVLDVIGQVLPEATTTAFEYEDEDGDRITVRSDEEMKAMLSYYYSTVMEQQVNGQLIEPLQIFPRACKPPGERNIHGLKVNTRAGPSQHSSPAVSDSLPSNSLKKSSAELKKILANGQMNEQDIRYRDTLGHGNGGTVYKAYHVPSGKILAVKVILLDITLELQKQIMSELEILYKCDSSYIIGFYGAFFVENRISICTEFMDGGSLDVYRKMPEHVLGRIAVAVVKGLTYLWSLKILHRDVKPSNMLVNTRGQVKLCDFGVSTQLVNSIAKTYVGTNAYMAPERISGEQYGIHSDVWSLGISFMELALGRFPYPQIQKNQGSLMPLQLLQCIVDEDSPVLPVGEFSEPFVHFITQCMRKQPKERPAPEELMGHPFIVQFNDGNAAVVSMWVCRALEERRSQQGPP

For test [7], the target named is Platelet-derived growth factor receptor beta (Homo sapiens, UniProt P09619).
The target of test [8] is cAMP-dependent protein kinase catalytic subunit gamma (Homo sapiens, UniProt P22612).
In test [9] the target is T3, Ras-related protein Rab-10 (Homo sapiens, UniProt P61026).
T3 sequence (P61026 whole entry): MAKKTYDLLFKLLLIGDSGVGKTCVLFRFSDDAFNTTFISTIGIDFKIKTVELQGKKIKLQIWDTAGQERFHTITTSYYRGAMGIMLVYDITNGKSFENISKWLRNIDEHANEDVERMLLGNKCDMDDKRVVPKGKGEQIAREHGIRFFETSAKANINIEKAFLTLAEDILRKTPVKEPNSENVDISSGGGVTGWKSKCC

For test [10], the target named is Receptor-interacting serine/threonine-protein kinase 2 (Homo sapiens, UniProt O43353).
The target in test [11] is Serine/threonine-protein kinase SIK2 (Homo sapiens, UniProt Q9H0K1).
In test [12] the target is Dual specificity testis-specific protein kinase 1 (Homo sapiens, UniProt Q15569).
The target in test [13] is DnaJ homolog subfamily A member 1 (Homo sapiens, UniProt P31689).
Test [14] deals with Mitogen-activated protein kinase 14 (Homo sapiens, UniProt Q16539).
Test [15] concerns the target Mitogen-activated protein kinase kinase kinase kinase 5 (Homo sapiens, UniProt Q9Y4K4).
For test [16], the target named is Non-receptor tyrosine-protein kinase TYK2 (Homo sapiens, UniProt P29597).
Note: in the data inactive means no Kd found up to 30 µM.

Chain of Ephrin type-A receptor 5 (P54756 whole entry): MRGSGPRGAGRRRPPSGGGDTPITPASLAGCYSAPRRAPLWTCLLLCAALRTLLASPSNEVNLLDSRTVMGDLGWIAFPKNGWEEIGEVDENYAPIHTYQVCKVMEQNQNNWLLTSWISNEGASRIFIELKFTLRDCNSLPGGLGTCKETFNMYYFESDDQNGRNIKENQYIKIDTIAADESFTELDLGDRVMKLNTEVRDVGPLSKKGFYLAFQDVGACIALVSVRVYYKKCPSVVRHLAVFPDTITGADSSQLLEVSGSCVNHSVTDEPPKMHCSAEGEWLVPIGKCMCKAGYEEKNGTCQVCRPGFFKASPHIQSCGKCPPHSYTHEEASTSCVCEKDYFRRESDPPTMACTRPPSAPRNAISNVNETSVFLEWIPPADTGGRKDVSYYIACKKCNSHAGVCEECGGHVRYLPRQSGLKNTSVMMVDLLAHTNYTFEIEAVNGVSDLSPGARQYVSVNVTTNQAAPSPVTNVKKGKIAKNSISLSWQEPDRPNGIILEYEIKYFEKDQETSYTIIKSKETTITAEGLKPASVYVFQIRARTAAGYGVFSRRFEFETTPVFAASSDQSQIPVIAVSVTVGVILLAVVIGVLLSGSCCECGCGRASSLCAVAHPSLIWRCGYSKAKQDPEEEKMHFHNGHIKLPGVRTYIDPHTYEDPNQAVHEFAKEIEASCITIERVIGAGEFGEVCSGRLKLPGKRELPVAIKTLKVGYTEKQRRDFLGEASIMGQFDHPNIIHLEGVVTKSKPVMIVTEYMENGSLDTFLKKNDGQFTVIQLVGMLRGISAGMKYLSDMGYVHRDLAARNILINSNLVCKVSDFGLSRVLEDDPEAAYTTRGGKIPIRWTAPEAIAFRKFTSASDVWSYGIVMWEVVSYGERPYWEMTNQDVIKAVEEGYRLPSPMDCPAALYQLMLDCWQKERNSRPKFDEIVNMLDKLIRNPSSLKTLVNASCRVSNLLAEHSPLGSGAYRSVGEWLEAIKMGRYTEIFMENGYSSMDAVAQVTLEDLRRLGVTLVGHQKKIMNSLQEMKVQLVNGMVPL
Chain of cAMP-dependent protein kinase catalytic subunit gamma (P22612 whole entry): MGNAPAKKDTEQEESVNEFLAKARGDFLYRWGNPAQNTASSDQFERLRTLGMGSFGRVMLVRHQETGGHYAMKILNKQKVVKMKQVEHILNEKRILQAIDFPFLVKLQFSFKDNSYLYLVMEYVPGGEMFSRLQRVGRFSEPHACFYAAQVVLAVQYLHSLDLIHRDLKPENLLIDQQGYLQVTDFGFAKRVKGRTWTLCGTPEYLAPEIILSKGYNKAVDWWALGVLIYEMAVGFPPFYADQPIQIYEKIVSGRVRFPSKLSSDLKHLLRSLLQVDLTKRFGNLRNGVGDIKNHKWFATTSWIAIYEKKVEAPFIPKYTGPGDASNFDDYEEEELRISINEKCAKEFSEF
Chain of Serine/threonine-protein kinase SIK2 (Q9H0K1 whole entry): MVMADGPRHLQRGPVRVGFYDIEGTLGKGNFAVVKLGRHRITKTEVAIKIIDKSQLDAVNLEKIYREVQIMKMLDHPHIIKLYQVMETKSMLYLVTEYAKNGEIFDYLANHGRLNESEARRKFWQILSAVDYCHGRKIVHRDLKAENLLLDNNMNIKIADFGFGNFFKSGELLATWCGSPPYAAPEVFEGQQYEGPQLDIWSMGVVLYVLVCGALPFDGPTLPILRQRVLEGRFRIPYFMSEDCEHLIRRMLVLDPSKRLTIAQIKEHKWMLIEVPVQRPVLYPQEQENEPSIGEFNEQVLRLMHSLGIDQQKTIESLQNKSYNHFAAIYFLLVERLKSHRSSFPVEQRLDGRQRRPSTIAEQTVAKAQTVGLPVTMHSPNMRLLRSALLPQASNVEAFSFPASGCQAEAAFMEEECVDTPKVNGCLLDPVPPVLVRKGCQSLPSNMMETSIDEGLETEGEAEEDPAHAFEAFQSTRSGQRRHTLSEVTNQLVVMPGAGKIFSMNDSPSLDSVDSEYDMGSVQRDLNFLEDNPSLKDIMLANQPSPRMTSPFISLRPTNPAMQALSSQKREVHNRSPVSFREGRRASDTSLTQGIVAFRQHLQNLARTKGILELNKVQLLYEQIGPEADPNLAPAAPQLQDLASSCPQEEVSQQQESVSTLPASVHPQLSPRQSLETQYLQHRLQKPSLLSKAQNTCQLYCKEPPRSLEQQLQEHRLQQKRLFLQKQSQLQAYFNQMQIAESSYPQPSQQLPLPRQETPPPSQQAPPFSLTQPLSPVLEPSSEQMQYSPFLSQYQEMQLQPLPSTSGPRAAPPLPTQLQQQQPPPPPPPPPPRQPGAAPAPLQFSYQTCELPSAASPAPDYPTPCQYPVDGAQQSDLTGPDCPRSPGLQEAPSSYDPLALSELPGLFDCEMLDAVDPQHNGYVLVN
Chain of Bone morphogenetic protein receptor type-1B (O00238 whole entry): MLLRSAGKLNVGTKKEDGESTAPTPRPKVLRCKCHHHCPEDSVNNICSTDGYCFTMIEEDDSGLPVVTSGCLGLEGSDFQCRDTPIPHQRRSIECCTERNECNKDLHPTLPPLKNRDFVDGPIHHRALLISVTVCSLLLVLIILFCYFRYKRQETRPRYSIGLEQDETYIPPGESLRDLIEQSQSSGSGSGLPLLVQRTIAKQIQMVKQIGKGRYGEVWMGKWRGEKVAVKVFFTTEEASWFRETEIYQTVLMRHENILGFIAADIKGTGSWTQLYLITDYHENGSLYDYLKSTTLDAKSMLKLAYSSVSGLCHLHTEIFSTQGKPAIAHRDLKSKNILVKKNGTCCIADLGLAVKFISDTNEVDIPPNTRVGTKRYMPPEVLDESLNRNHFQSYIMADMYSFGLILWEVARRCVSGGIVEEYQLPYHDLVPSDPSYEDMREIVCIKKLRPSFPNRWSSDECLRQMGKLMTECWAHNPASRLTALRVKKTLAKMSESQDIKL
Chain of Deoxycytidine kinase (P27707 whole entry): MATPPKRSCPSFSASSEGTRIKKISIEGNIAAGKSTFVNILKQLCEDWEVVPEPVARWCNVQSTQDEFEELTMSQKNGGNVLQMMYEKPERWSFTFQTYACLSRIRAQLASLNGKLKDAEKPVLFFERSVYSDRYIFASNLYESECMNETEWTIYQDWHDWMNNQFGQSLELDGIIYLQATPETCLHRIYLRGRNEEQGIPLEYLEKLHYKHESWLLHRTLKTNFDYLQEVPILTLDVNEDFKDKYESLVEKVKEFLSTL
Chain of Receptor-interacting serine/threonine-protein kinase 2 (O43353 whole entry): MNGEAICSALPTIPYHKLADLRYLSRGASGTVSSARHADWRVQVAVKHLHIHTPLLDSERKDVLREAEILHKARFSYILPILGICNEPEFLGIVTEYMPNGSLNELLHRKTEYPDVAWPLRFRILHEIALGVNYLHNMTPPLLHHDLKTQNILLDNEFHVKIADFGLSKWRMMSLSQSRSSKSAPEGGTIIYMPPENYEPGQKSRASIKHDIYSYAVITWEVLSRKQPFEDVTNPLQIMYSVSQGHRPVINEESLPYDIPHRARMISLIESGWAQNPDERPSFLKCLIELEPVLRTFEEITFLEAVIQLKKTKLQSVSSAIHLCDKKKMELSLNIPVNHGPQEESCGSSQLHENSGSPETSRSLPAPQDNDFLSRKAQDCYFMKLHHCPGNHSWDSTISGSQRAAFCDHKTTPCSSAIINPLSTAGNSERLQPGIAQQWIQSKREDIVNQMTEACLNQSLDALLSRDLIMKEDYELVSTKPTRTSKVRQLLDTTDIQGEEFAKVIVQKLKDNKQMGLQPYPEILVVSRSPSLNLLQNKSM
Chain of Dual specificity testis-specific protein kinase 1 (Q15569 whole entry): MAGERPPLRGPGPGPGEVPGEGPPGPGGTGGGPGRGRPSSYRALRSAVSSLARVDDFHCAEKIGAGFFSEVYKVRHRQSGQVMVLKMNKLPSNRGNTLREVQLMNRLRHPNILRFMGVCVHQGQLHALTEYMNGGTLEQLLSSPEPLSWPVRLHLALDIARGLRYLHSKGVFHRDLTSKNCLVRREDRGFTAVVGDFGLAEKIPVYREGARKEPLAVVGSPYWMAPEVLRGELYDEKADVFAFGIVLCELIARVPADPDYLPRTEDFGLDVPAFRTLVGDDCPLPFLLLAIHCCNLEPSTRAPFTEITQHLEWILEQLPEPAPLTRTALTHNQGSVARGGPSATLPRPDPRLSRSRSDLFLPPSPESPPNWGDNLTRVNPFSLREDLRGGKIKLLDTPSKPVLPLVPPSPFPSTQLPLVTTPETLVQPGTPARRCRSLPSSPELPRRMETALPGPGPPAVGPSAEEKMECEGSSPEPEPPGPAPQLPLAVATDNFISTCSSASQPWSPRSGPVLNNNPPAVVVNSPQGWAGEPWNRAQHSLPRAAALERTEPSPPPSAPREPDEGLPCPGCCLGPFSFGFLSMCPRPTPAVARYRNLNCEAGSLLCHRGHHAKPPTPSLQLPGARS
Chain of Tyrosine-protein kinase Lyn (P07948 whole entry): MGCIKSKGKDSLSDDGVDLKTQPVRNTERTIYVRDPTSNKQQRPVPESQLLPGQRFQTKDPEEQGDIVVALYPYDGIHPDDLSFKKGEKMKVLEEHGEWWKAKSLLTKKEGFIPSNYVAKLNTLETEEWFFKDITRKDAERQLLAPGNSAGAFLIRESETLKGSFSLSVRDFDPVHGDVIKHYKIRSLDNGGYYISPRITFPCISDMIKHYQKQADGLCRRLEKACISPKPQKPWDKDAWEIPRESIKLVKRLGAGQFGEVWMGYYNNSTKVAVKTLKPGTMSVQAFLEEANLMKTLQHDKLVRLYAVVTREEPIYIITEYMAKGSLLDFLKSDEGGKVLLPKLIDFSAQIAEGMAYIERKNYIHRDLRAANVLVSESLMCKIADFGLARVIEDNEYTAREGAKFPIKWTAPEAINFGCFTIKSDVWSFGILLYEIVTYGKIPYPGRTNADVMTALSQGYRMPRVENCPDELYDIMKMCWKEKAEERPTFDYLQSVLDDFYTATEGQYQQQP

Turning to `COc1cc(Nc2ncc3c(n2)-c2ccc(Cl)cc2C(c2c(F)cccc2OC)=NC3)ccc1C(=O)O` [ALISERTIB], the Kd in test [1], in [2], in test [3], in test [4], in [5] and in [6] was > 30 µM (inactive) in each case. Besides, the Kd is > 30 µM (inactive) in [7]; > 30 µM (inactive) in [8]; 1.35 µM in test [9]; > 30 µM (inactive) in [10]; > 30 µM (inactive) in [11]; > 30 µM (inactive) in [12].

For the compound `O=C(Nc1c[nH]nc1-c1nc2cc(CN3CCOCC3)ccc2[nH]1)NC1CC1` [AT-9283], the Kd in test [1] was > 30 µM (inactive); in test [2], 0.021 µM (active); in [3], > 30 µM (inactive); in test [13] it was > 30 µM (inactive); in [4], > 30 µM (inactive); in test [6], 0.047 µM (active). In addition, the Kd in test [14] was > 30 µM (inactive); in test [7], > 30 µM (inactive); in [8], 0.003 µM (active); in test [9] it was > 30 µM (inactive); in test [10], > 30 µM (inactive); in [11], 0.03 µM (active). Moreover, the Kd in [12] was > 30 µM (inactive).

`CNC(=O)c1ccccc1Sc1ccc2c(/C=C/c3ccccn3)n[nH]c2c1` [AXITINIB]: the Kd in test [1], in test [3], in test [13], in [8] and in test [9] was > 30 µM (inactive) each time.

For `Cn1cc(C2=C(c3cn(C4CCN(Cc5ccccn5)CC4)c4ccccc34)C(=O)NC2=O)c2ccccc21` [ENZASTAURIN], the Kd in [1], in test [3], in test [13], in test [8] and in test [9] was > 30 µM (inactive) throughout.

Regarding `Cc1nc2cc(-n3ncc(C(=O)c4cc5ccccc5[nH]4)c3N)ccc2[nH]1` [FGFR INHIBITOR DEBIO 1347], the Kd in [1], in [2], in [3], in test [13], in test [4] and in test [5] was > 30 µM (inactive) each time. For the same compound, the Kd in test [6], in [15], in test [14], in test [7], in test [9] and in [10] was > 30 µM (inactive) in each case. Besides, the Kd in [11], in [12] and in test [16] was > 30 µM (inactive) each time.

On to `C[C@@H](Oc1cc(-n2cnc3ccc(CN4CCN(C)CC4)cc32)sc1C(N)=O)c1ccccc1C(F)(F)F` [GSK-461364], for which the Kd in test [1], in [3], in test [13] and in test [9] was > 30 µM (inactive) each time.

Consider `Cc1[nH]c(/C=C2\C(=O)Nc3ccccc32)c(C)c1CCC(=O)O` [ORANTINIB], for which the Kd in test [1] was > 30 µM (inactive); in test [2] it was > 30 µM (inactive); in test [3], > 30 µM (inactive); in test [13], > 30 µM (inactive); in test [4], > 30 µM (inactive); in test [6], 4.94 µM (active). Besides, the Kd is > 30 µM (inactive) in [14]; 0.744 µM (active) in test [7]; > 30 µM (inactive) in test [9]; > 30 µM (inactive) in [10]; > 30 µM (inactive) in [11]; > 30 µM (inactive) in test [12].

As for `NC(=O)c1c(OCc2c(F)cc(Br)cc2F)nsc1NC(=O)NCCCCN1CCCC1` [OSI-632], the Kd in [1], in test [2], in test [3], in test [13], in test [4] and in [6] was > 30 µM (inactive) in each case. For the same compound, the Kd was > 30 µM (inactive) in [8]; > 30 µM (inactive) in test [9]; 0.958 µM (active) in test [10]; 0.904 µM (active) in test [11]; 1.42 µM (active) in [12].

As to `CC(=O)NCC(=O)N1[C@@H]2CC[C@H]1c1ccc(Nc3ncc(C(F)(F)F)c(NC4CCC4)n3)cc12` [PF-03814735], the Kd in test [1], in test [2], in test [3], in test [13], in [4] and in test [5] was > 30 µM (inactive) in each case. Moreover, the Kd in test [8] is > 30 µM (inactive); in [9], > 30 µM (inactive); in test [10], > 30 µM (inactive); in test [11], 0.011 µM (active); in test [12], > 30 µM (inactive).

In the case of `O=C(NOCCO)c1cc(CN2OCCCC2=O)c(F)c(F)c1Nc1ccc(I)cc1F` [RO-4987655], the Kd in test [1], in test [3], in test [13], in test [8] and in test [9] was > 30 µM (inactive) each time.

Regarding `N#CC[C@H](C1CCCC1)n1cc(-c2ncnc3[nH]ccc23)cn1` [RUXOLITINIB], the Kd in test [1], in test [3], in [13], in [8] and in [9] was > 30 µM (inactive) in each case.

Turning to `C[C@@H](N)c1ccc(C(=O)Nc2ccnc3[nH]ccc23)cc1` [Y-39983], the Kd in [1], in test [2], in test [3], in [13], in test [4] and in [5] was > 30 µM (inactive) in each case. The Kd in [6], in test [15], in test [7], in [8], in [9] and in test [10] was > 30 µM (inactive) throughout. Besides, the Kd in [11], in test [12] and in test [16] was > 30 µM (inactive) each time.

(Values after ChEMBL document CHEMBL3991601, “The target landscape of clinical kinase drugs” (Science, 2017).)
